target: T1, human GPR119 (Homo sapiens, UniProt Q8TDV5); assay: Cyclic AMP Assay in Stable Cell Line (HTRF); assay type: cell-based; settings: Flp-In-CHO-hGPR119 cells, intracellular cAMP, 30 minutes at 37° C., 1 mM IBMX
T1 construct: expressed in transfected cells
T1 sequence (Q8TDV5 1-335): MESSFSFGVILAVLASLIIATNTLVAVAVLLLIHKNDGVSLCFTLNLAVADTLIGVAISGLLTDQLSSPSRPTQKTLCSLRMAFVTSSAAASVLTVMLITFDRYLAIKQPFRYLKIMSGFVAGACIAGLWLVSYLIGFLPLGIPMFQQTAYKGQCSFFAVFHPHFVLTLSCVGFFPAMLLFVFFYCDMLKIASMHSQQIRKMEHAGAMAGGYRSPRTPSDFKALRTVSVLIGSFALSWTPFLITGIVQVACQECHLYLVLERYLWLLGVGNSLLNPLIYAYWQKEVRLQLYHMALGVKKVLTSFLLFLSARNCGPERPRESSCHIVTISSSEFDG
Method: Flp-In-CHO cells (Invitrogen, Cat. #R758-07) are maintained in Ham's F12 medium supplemented with 10% fetal bovine serum, 1% antibiotic mixture and 2 mM L-glutamine. The cells are transfected with a DNA mixture containing human GPR119 in pcDNA5/FRT vector and the pOG44 vector (1:9) using Fugene6 (Roche), according to the manufacturer's instruction. After 48 hours, the medium is changed to medium supplemented with 400 μg/ml hygromycin B to initiate the selection of stably transfected cells.
To test the activity of compounds of the invention, Flp-In-CHO-hGPR119 cells are harvested and resuspended in DMEM plus 3% lipid-depleted fetal bovine serum. Forth μl of cells are plated in 384 well plates at a density of 15,000 cells/well. IBMX (3-isobutyl-1-methyl-xanthine) is added to the cells to a final concentration of 1 mM, followed by the addition of 500 nl of the compound to be tested. The cells are incubated at 37° C. for 30 minutes. Equal volume (20 μl) of the HTRF reagents, anti-cAMP-Cryptate and cAMP-XL665, are added to the cells. The plates are incubated at room temperature for 1 hour and read on a HTRF reader according to the manufacturer's instruction.

Point of comparison: `CS(=O)(=O)N1CCN(c2ccc(OC3CN(Cc4ccc(C(F)(F)F)cc4)C3)cn2)CC1` [Example A9], EC50 38 nM. Against it:
- CS(=O)(=O)N1CCN(c2ccc(OC3CN(Cc4cccc(C(F)(F)F)c4)C3)cn2)CC1 [Example A16] — 23-fold higher, 884 nM
- CS(=O)(=O)N1CCC(c2cc(F)c(OC3CN(Cc4ccc(C(F)(F)F)cc4)C3)c(F)c2)CC1 [Example A7, 4-(3,5-difluoro-4-(1-(4-(trifluoromethyl)benzyl)azetidin-3-yloxy)phenyl)-1-(methylsulfonyl)piperidineine] — 2.9-fold lower, 13 nM
- CS(=O)(=O)N1CCC(c2ccc(OC3CCN(Cc4nc(C(F)(F)F)no4)CC3)cc2F)CC1 [Example B7] — 2.4-fold lower, 16 nM
- O=C(N1CC=C(c2cc(F)c(OC3CN(Cc4ccc(C(F)(F)F)cc4)C3)c(F)c2)CC1)C(F)(F)F [Example A35] — 18-fold higher, 688 nM
- CS(=O)(=O)N1CCN(c2cnc(OC3CCN(Cc4nc(C(F)(F)F)no4)CC3)cn2)CC1 [Example B4, 5-((4-(5-(4-(Methylsulfonyl)piperazin-1-yl)pyrazin-2-yloxy)piperidin-1-yl)methyl)-3-(trifluoromethyl)-1,2,4-oxadiazole] — 20-fold higher, 757 nM
- CS(=O)(=O)N1CCC(c2cc(F)c(OC3CCN(Cc4ccc(C(F)(F)F)cc4)C3)c(F)c2)CC1 (centres unmarked) [Example C1, 4-(3,5-Difluoro-4-(1-(4-(trifluoromethyl)benzyl)pyrrolidin-3-yloxy)phenyl)-1-(methylsulfonyl)piperidine] — 3.8-fold higher, 144 nM
- CS(=O)(=O)N1CCN(c2cnc(OC3CN(Cc4ccc(C(F)(F)F)cc4)C3)cn2)C(=O)C1 [Example A3] — 1.9-fold lower, 20 nM
- Cn1nc(C(F)(F)F)cc1CN1CC(Oc2c(F)cc(C3CCN(S(C)(=O)=O)CC3)cc2F)C1 [Example B15] — 2.6-fold higher, 97 nM
- CS(=O)(=O)N1CCN(c2cnc(OC3CN(Cc4ccc(C(F)(F)F)cc4)C3)cn2)CC1 [Example A6, 2-(4-(methylsulfonyl)piperazin-1-yl)-5-(1-(4-(trifluoromethyl)benzyl)azetidin-3-yloxy)pyrazine] — 1.8-fold higher, 69 nM
- CS(=O)(=O)N1CCC(c2cc(F)c(OC3CCN(Cc4nc(C(F)F)no4)CC3)c(F)c2)CC1 [Example B5] — within 1.5-fold, 49 nM
- CS(=O)(=O)N1CCC(c2cc(F)c(OC3CCN(Cc4nc(C(F)(F)F)cs4)CC3)c(F)c2)CC1 [Example B16] — 4.2-fold lower, 9 nM
- CC(C)c1ccc(CN2CC(Oc3ccc(N4CCN(S(C)(=O)=O)CC4)cc3)C2)cc1 [Example A22] — 3.1-fold higher, 116 nM
- O=S(=O)(C1CCOCC1)N1CCC(c2cc(F)c(OC3CN(Cc4ccc(C(F)(F)F)cc4)C3)c(F)c2)CC1 [Example A36] — within 1.5-fold, 28 nM
- CS(=O)(=O)N1CCN(c2ccc(OC3CN(Cc4ccc(OC(F)(F)F)cc4)C3)cn2)CC1 [Example A8] — 1.8-fold higher, 70 nM
- CS(=O)(=O)N1CCC(c2ccc(OC3CCN(Cc4nc(C(F)(F)F)no4)CC3)cc2)CC1 [Example B26] — within 1.5-fold, 37 nM
- CC(C)(C)OC(=O)N1CCC(S(=O)(=O)N2CCC(c3cc(F)c(OC4CN(Cc5ccc(C(F)(F)F)cc5)C4)c(F)c3)CC2)CC1 [Example A37] — 8.6-fold higher, 325 nM
- CS(=O)(=O)N1CCC(c2cc(F)c(OC3CN(Cc4noc(C(F)(F)F)n4)C3)c(F)c2)CC1 [Example B23] — 5.5-fold higher, 210 nM
- CC(C)c1ccc(CN2CC(Oc3ccc(N4CCN(S(C)(=O)=O)CC4=O)nc3)C2)cc1 [Example A18] — 3.5-fold lower, 11 nM
- CCC(c1ccc(C(F)(F)F)cc1)N1CC(Oc2c(F)cc(C3CCN(S(C)(=O)=O)CC3)cc2F)C1 (centres unmarked) [Example A25] — 6.5-fold higher, 246 nM
- CS(=O)(=O)N1CC=C(c2cc(F)c(OC3CN(Cc4ccc(C(F)(F)F)cc4)C3)c(F)c2)CC1 [Example A34] — 3.2-fold lower, 12 nM
- COc1ccc(CN2CC(Oc3ccc(N4CCN(S(C)(=O)=O)CC4)nc3)C2)cc1 [Example A12] — 9-fold higher, 341 nM
- CC(F)(F)c1noc(CN2CC(Oc3c(F)cc(C4CCN(S(C)(=O)=O)CC4)cc3F)C2)n1 [Example B13] — 2.8-fold higher, 108 nM
- Cn1nc(C(F)(F)F)nc1CN1CC(Oc2c(F)cc(C3CCN(S(C)(=O)=O)CC3)cc2F)C1 [Example B21] — 6.4-fold higher, 244 nM
- CS(=O)(=O)N1CCC(c2cc(F)c(OC3CN(Cc4ccc(C5(F)COC5)cc4)C3)c(F)c2)CC1 [Example A28] — within 1.5-fold, 49 nM
- CS(=O)(=O)N1CCN(c2ncc(OC3CN(Cc4ccc(C(F)(F)F)cc4)C3)cn2)CC1 [Example A42] — 3.9-fold higher, 149 nM
- CS(=O)(=O)N1CCC(c2cc(F)c(OC3CN(Cc4nc(C(F)(F)F)no4)C3)c(F)c2)CC1 [Example B12] — within 1.5-fold, 55 nM
- CS(=O)(=O)N1CCC(c2cc(F)c(OC3CCN(Cc4nc(C(F)(F)F)no4)CC3)cc2F)CC1 [Example B28] — 7.6-fold lower, 5 nM
- CC(C)(F)c1noc(CN2CCC(Oc3c(F)cc(C4CCN(S(C)(=O)=O)CC4)cc3F)CC2)n1 [Example B2, 5-((4-(2,6-difluoro-4-(1-(methylsulfonyl)piperidin-4-yl)phenoxy)piperidin-1-yl)methyl)-3-(2-fluoropropan-2-yl)-1,2,4-oxadiazole] — within 1.5-fold, 28 nM
- CS(=O)(=O)N1CCC(c2cc(F)c(OC3CN(Cc4cccc5ccccc45)C3)c(F)c2)CC1 [Example A31] — 17-fold higher, 652 nM
- CS(=O)(=O)N1CCC(F)(c2cc(F)c(OC3CCN(Cc4nc(C(F)(F)F)no4)CC3)c(F)c2)CC1 [Example D1, 5-((4-(2,6-difluoro-4-(4-fluoro-1-(methylsulfonyl)piperidin-4-yl)phenoxy)piperidin-1-yl)methyl)-3-(trifluoromethyl)-1,2,4-oxadiazole] — 5.2-fold higher, 199 nM
- CC(C)c1ccc(CN2CC(Oc3ccc(N4CCN(S(C)(=O)=O)CC4)nc3)C2)cc1 [Example A1, 1-(5-(1-(4-isopropylbenzyl)azetidin-3-yloxy)pyridin-2-yl)-4-(methylsulfonyl)piperazine] — 3.1-fold higher, 118 nM
- CS(=O)(=O)N1CCC(c2cc(F)c(OC3CN(C(CO)c4ccc(C(F)(F)F)cc4)C3)c(F)c2)CC1 (centres unmarked) [Example A29] — 29-fold higher, 1090 nM
- CS(=O)(=O)N1CCN(c2ccc(OC3CN(Cc4ccc(Cl)cc4)C3)cn2)CC1 [Example A15] — 3.5-fold higher, 134 nM
- CS(=O)(=O)N1CCC(c2ccc(OC3CCN(Cc4nc(C(F)(F)F)no4)CC3)c(F)c2F)CC1 [Example B27] — 3.5-fold lower, 11 nM
- CC(C)c1ccc(CN2CC(Oc3ccc(N4CCN(C(=O)OCc5ccccc5)CC4=O)nc3)C2)cc1 [Example A2, Benzyl 4-(5-(1-(4-isopropylbenzyl)azetidin-3-yloxy)pyridin-2-yl)-3-oxopiperazine-1-carboxylate] — 26-fold higher, 979 nM
- CS(=O)(=O)N1CCC(c2cc(F)c(OC3CCN(Cc4nc(C(F)(F)F)no4)CC3)c(F)c2)CC1 [Example B1, 5-((4-(2,6-Difluoro-4-(1-(methylsulfonyl)piperidin-4-yl)phenoxy)piperidin-1-yl)methyl)-3-(trifluoromethyl)-1,2,4-oxadiazole] — 5.4-fold lower, 7 nM
- CS(=O)(=O)N1CCC(c2cc(F)c(OC3CCN(Cc4noc(C(F)(F)F)n4)CC3)c(F)c2)CC1 [Example B22] — 12-fold higher, 443 nM
- CS(=O)(=O)N1CCC(c2cc(F)c(OC3CCN(Cc4cccc(C(F)(F)F)c4)CC3)c(F)c2)CC1 [Example A45] — within 1.5-fold, 48 nM
- CS(=O)(=O)N1CCN(c2cc(F)c(OC3CN(Cc4ccc(C(F)(F)F)cc4)C3)c(F)c2)C(=O)C1 [Example A33] — 8.7-fold higher, 331 nM
- CC(C)c1noc(CN2CCC(Oc3c(F)cc(C4CCN(S(C)(=O)=O)CC4)cc3F)CC2)n1 [Example B24] — 6.3-fold lower, 6 nM
- CC(C)c1ccc(CN2CC(Oc3cnc(N4CCN(C(=O)OCc5ccccc5)CC4)cn3)C2)cc1 [Example A10] — 18-fold higher, 666 nM
- Cc1ccc(CN2CC(Oc3ccc(N4CCN(S(C)(=O)=O)CC4)nc3)C2)cc1 [Example A14] — 6.3-fold higher, 238 nM
- CS(=O)(=O)N1CCC(c2c(F)cc(OC3CCN(Cc4nc(C(F)(F)F)no4)CC3)cc2F)CC1 [Example B29] — within 1.5-fold, 50 nM
- CS(=O)(=O)N1CCC(c2ccc(OC3CCN(Cc4nc(C(F)(F)F)no4)CC3)c(F)c2)CC1 [Example B6] — within 1.5-fold, 37 nM
- O=S(=O)(CCCO)N1CCC(c2cc(F)c(OC3CN(Cc4ccc(C(F)(F)F)cc4)C3)c(F)c2)CC1 [Example A41] — within 1.5-fold, 36 nM
- CCCS(=O)(=O)N1CCN(c2ccc(OC3CN(Cc4ccc(C(F)(F)F)cc4)C3)cn2)CC1 [Example A21] — within 1.5-fold, 39 nM
- CC(C)c1ccc(CN2CC(Oc3cnc(N4CCN(S(C)(=O)=O)CC4=O)cn3)C2)cc1 [Example A19] — 3.2-fold lower, 12 nM
- CS(=O)(=O)N1CCC(c2cc(F)c(OC3CN(Cc4ccc5ccccc5c4)C3)c(F)c2)CC1 [Example A30] — 3.6-fold higher, 135 nM
- CC1(Oc2c(F)cc(C3CCN(S(C)(=O)=O)CC3)cc2F)CN(Cc2ccc(C(F)(F)F)cc2)C1 [Example C3] — 17-fold higher, 644 nM
- CC(Cc1ccc(C(F)(F)F)cc1)N1CC(Oc2c(F)cc(C3CCN(S(C)(=O)=O)CC3)cc2F)C1 (centres unmarked) [Example A24] — 4.7-fold higher, 177 nM
- CC(C)c1noc(CN2CC(Oc3c(F)cc(C4CCN(S(C)(=O)=O)CC4)cc3F)C2)n1 [Example B9] — 2-fold higher, 76 nM
- O=S(=O)(C1CCNC1)N1CCC(c2cc(F)c(OC3CN(Cc4ccc(C(F)(F)F)cc4)C3)c(F)c2)CC1 (centres unmarked) [Example A40] — 15-fold higher, 576 nM

— patent publication US8575168B2, “Compounds and compositions as modulators of GPR119 activity” (IRM LLC, priority 2009, dated 2013)
